From patent publication EP0327365B1, “Improvements in or relating to modified haptens useful as imaging and therapeutic agents” (HYBRITECH INCORPORATED, priority 1988, dated 1989)

Experiments:
[1] = test system: monoclonal antibody CHA255; assay: Determination of hapten-antibody dissociation rates; assay type: binding, BALB/c mice; conditions: 22°C; indium complex of hapten from CHA255 after 100 fold excess of indium-115 loaded hapten
Description: Hapten-antibody dissociation rates were determined using monoclonal antibody CHA255, prepared as described in Example 2A, by measuring the quantity of ¹¹¹In³⁺ chelate released from the antibody hapten complex as a function of time after addition of a 100 fold excess (over antibody binding sites) of indium-115 loaded hapten. Thus, for each hapten, a 700 »l solution was prepared containing: antibody at a concentration of 160 nM; indium loaded hapten, trace labeled with ¹¹¹In (total concentration = 160 nM); normal human serum albumin at a total concentration of 1.5 mg/mL; and isotonic phosphate buffered saline, (10 mM PO₄²⁻, 150 mM NaCl, pH 7.2). Indium-115 loaded hapten was added to a final Concentration of […]. Reactions were stirred by placing the sample containers ir a rack mounted on a vortexer head.
At various times after addition of the excess hapten, […] portions of the reaction solutions were transferred to Centrifree tubes (Amicon Corperation, Danvers, Massachusetts) and centrifuged at 1500xg for eight to ten minutes. The reaction time was taken to be the time between addition of the excess hapten and the time the centrifuge reached the desired velocity. Six timepoints, each in duplicate, were obtained over a range of about two reaction half-lives for each rate constant determination. A 200 »l portion from each centrifuged and uncentrifuged solution was then counted for ¹¹¹In. The relative concentration of free hapten was taken to be the ratio of counts in the centrifuged solution to the uncentrifuged solution at each timepoint. Times were recorded to the nearest tenth of a minute.
Room temperature rate constants were measured without the aid of a constant temperature bath. The ambient temperature remained at 22°±1 C.
Rate constants and standard deviations were obtained from a plot of the logarithm of relative complex concentration vs. time. Data were analyzed using the linear regression module of the RS/1 Program (BBN Software Products Corporation, Cambridge, Massachusetts).
Control samples were included in each experiment to determine: A) that the initial condition of 100% of labeled hapten bound to antibody was met, and B) that in the absence of antibody, 100% of counts were able to penetrate the Centrifree membrane. […]

[2] = test system: T-380 tumors; assay: Hapten biodistribution, premix protocol with bifunctional antibody ECH037.2; assay type: in vivo, nude mice; parameters: TOTAL RECOV: unit not given here; conditions: for % DOSE PER GRAM, KIDNEY / % DOSE PER GRAM, LIVER / % DOSE PER GRAM, TUMOR / FECES / TOTAL RECOV / URINE / % DOSE PER GRAM, BLOOD / TUMOR/BLOOD: premix with 20 µg ECH037.2; for % DOSE PER GRAM, BLOOD: 111In-labeled hapten i.v.; for TUMOR/BLOOD: ratio; for Percent Injected Dose in Feces: premix protocol (Table VI)
Description: Two protocols were used for examining the biodistribution of the derivatized haptens in the presence of the bifunctional antibody ECH037.2. In a premix protocol, ECH037.2 and the derivatized hapten were combined prior to injection in the animals. In the prelocalization protocol, ECH037.2 was injected into the animals, and the antibody was allowed to prelocalize for 24 hours prior to injection of the radiolabeled hapten.
Biodistribution studies were performed in nude mice carrying subcutaneous implants of the human colon carcinoma cell line T-380 which expresses the carcinoembryonic antigen (CEA) recognized by ECH037.2. Briefly, Balb/C Nu/Nu mice were injected subcutaneously with a minced preparation of T-380 tumor implants and maintained for approximately two weeks, or until the tumor implant had grown to a size of approximately 0.5 grams as described by Hagan, P.L., et al. J. Nuc. Med., 26 1418-1423 (1985). Mice were kept in a sterile environment to prevent complications due to bacterial or viral infections. Biodistributions were performed as described by Halpern, S., et al., Cancer Res. 43, 5347-5355 (1983). Briefly, the radiolabeled haptens were injected intravenously in […], and the pharmacokinetics were evaluated at several time points post-injection. At these times, mice were sacrificed and weighed. Organs were removed, their weight recorded, and each organ was then washed in sterile PBS, pH 7.0, and fixed in formalin solution. Samples of blood, urine and feces also were collected and their weight similarly recorded. The organs, or a portion thereof, were transferred to clean tubes and their radioactive content was determined in a well-type gamma-counter.
Relative radioactive content of each organ was expressed as a percentage of injected dose per organ.
To indium-label the haptens of the invention 10 »l of 0.1 mM ligand was combined with X »l of ¹¹¹InCl₃ (in 50 mM HCl) and (x+10) »l of 0.26 M ammonium citrate, pH 6.0. X is calculated by the following equation: X = (200 »Ci)/(A »Ci/»l) [formula] where A is the specific activity of the ¹¹¹In.
The labeling was done in an acid-washed microfuge tube. After combining all of the components above, the solution was vortexed and allowed to stand at room temperature for 15 minutes.
Incorporation of the ¹¹¹In into the chelating agent was determined by TLC on silica in a methanol/aqueous ammonium acetate solvent system as described by Meares, et al. (Anal. Biochem., 142, 68-75 (1984)). Greater than 95% incorporation of the radioactivity into the chelate was required for the sample to be submitted for a biodistribution assay.
Prior to injection the ¹¹¹In-labeled hapten was diluted into freshly prepared isotonic sodium bicarbonate (1.39% w/v) containing 1 mg/ml normal human serum albumin (Buminate, 25% solution, Travenol Laboratories, Glendale, California) to which the bifunctional antibody had been added. The final composition of the solution was 0.2 mg/ml ECH037.2, 0.5 »M chelate, 0.1 »Ci/»l ¹¹¹In, all in a volume of 2.0 ml. For the biodistribution studies, 100 »l of the solution was injected into the tail vein of each animal.

Compound	t1/2, Dissociation Half-Lives [1]	% DOSE PER GRAM, KIDNEY ([2]; 24 hours)	% DOSE PER GRAM, LIVER ([2]; 24 hours)	% DOSE PER GRAM, TUMOR ([2]; 24 hours)	FECES ([2]; 24 hours)	TOTAL RECOV ([2]; 24 hours)	URINE ([2]; 24 hours)	% DOSE PER GRAM, BLOOD ([2]; 24 hours)	TUMOR/BLOOD ([2]; 24 hours)	Percent Injected Dose in Feces ([2]; 24 hrs.)	% DOSE PER GRAM, KIDNEY ([2]; 48 hours)	% DOSE PER GRAM, LIVER ([2]; 48 hours)	% DOSE PER GRAM, TUMOR ([2]; 48 hours)	FECES ([2]; 48 hours)	TOTAL RECOV ([2]; 48 hours)	URINE ([2]; 48 hours)	% DOSE PER GRAM, BLOOD ([2]; 48 hours)	TUMOR/BLOOD ([2]; 48 hours)	Percent Injected Dose in Feces ([2]; 48 hrs.)	other results
CC(=O)NC(CCCCNC(=S)Nc1ccc(CC(CN(CC(=O)O)CC(=O)O)N(CC(=O)O)CC(=O)O)cc1)C(N)=O (stereo not shown) [BALTUBE]	1.52 h	3.6 % DOSE PER GRAM	4.0 % DOSE PER GRAM	13.0 % DOSE PER GRAM	6.8% of total injected dose	52.0	16.3% of total injected dose	11.0 % DOSE PER GRAM	1.18	8.5 Percent Injected Dose	1.9 % DOSE PER GRAM	2.2 % DOSE PER GRAM	12.9 % DOSE PER GRAM	13.8% of total injected dose	57.8	26.5% of total injected dose	5.2 % DOSE PER GRAM	2.48	13.8 Percent Injected Dose	
O=C(O)CCCNC(=S)Nc1ccc(CC(CN(CC(=O)O)CC(=O)O)N(CC(=O)O)CC(=O)O)cc1 (stereo not shown) [BATUBE]	1.24 h	2.5 % DOSE PER GRAM	3.3 % DOSE PER GRAM	11.5 % DOSE PER GRAM	6.9% of total injected dose	50.8	20.0% of total injected dose	11.8 % DOSE PER GRAM	0.97	6.9 Percent Injected Dose	1.5 % DOSE PER GRAM	2.0 % DOSE PER GRAM	12.1 % DOSE PER GRAM	21.1% of total injected dose	68.3	30.4% of total injected dose	7.9 % DOSE PER GRAM	1.53	21.1 Percent Injected Dose	
O=C(O)CN(CC(=O)O)CC(Cc1ccc(NC(=S)NCc2ccccc2)cc1)N(CC(=O)O)CC(=O)O (stereo not shown) [BETUBE]	1.57 h	2.5 % DOSE PER GRAM	2.7 % DOSE PER GRAM	8.0 % DOSE PER GRAM	17.4% of total injected dose	44.6	8.4% of total injected dose	9.0 % DOSE PER GRAM	0.89	17.4 Percent Injected Dose	1.5 % DOSE PER GRAM	1.9 % DOSE PER GRAM	7.5 % DOSE PER GRAM	29.0% of total injected dose	54.2	12.0% of total injected dose	5.5 % DOSE PER GRAM	1.36	29.0 Percent Injected Dose	
CCCCNC(=S)Nc1ccc(CC(CN(CC(=O)O)CC(=O)O)N(CC(=O)O)CC(=O)O)cc1 (stereo not shown) [BUTUBE]	1.51 h	1.7 % DOSE PER GRAM	3.4 % DOSE PER GRAM	5.3 % DOSE PER GRAM	16.8% of total injected dose	63.8	22.0% of total injected dose	9.0 % DOSE PER GRAM	0.59	16.8 Percent Injected Dose	1.2 % DOSE PER GRAM	3.8 % DOSE PER GRAM	5.7 % DOSE PER GRAM	26.5% of total injected dose	69.3	27.0% of total injected dose	5.8 % DOSE PER GRAM	0.98	26.5 Percent Injected Dose	amount of hapten in the tumor ([2]; 24 hrs., premix protocol): 5.3 percent injected dose/gram; injected material excreted in the feces ([2]; 48 hrs. post injection, premix protocol): 26.5% of the injected material; amount of hapten in the tumor ([2]; 48 hrs., premix protocol): 5.7 percent injected dose/gram
